How the values were obtained:
Schgr-CCAPR-1 [1] = test: CRE(6x)-luc reporter assay, HEK-293T cells; type: cell-based, Schistocerca gregaria; conditions: CRE-controlled luciferase, three independent experiments, in triplicate
Excerpt: (§1) To deorphanize the three GPCRs, they were heterologously expressed in Chinese hamster ovary (CHO)-WTA11 cells, which stably express aequorin and a promiscuous Gα16 subunit. […] Intracellular signaling of Schgr-CCAPR-1, -2 and -3 was investigated in Schgr-CCAPR-expressing cells lacking the promiscuous Gα16 subunit (CHO-PAM28 cells) or co-expressing a cyclic AMP (cAMP) response element (CRE)-luciferase reporter (human embryonic kidney (HEK) 293T). In Schgr-CCAPR expressing CHO-PAM28 cells, Schgr-CCAP induced dose-dependent aequorin-based bioluminescent responses, with EC50 values in the subnanomolar range: 0.7 nM, 0.2 nM and 0.5 nM for Schgr-CCAPR-1, -2 and -3, respectively (Figure S4A).
(§2) Aequorin and CRE(6x)-luc reporter assays, as well as maintenance of the cell cultures and cell transfections, were carried out as previously described. […] Minimum bioluminescence values correlate with the signal obtained in the blank condition (without exposure to S. gregaria peptides). Calculations were performed using the output file from the Microwin software (Berthold Technologies, Bad Wildbad, Germany) in Excel (Microsoft). Half-maximal effective concentrations (EC50) were determined with the PRISM software (Graphpad version 6.03) using non-linear regression, log(agonist) vs. normalized response, applied to a sigmoidal dose-response model. […]
(§3) S c h g r-C C A P R -1 E C5 0 = 0 ,7 n M
(§4) S c hg r-C C A P R -2 E C5 0 = 0 ,2 n M
(§5) S c h g r-C C A P R -3 E C5 0 = 0 ,5 n M
(§6) S c h g r-C C A P R -1 E C5 0 = 0 ,0 1 n M
(§7) S c hg r-C C A P R -2 E C5 0 = 1 ,2 n M
(§8) S c hg r-C C A P R -3 E C5 0 = 0 ,0 5 n M
(§9) Dose-response curves induced by CCAP for cell -based receptor activity assays A) in CHO-PAM28-Schgr -CCAPR-1, -2 or -3 cells and B) in HEK293T Schgr -CCAPR-1, -2 or -3 cells, co - transfected with CRE(6x)-Luc construct. These cell-based receptor activity data were obtained from three independent experiments. The bioluminescence was measured in triplicate per concentration of Schgr -CCAP and per transfection. Error bars represent the S.E.M and the 100 % level refers to the maximal response level. […]

Schgr-CCAPR-3 [2] = test: CRE(6x)-luc reporter assay, HEK-293T cells; type: cell-based, Schistocerca gregaria; conditions: CRE-controlled luciferase, three independent experiments, in triplicate
Excerpt: as §1, §2, §3, §4, §5, §6, §7, §8, §9

Schgr-CCAPR-2 [3] = test: CRE(6x)-luc reporter assay, HEK-293T cells; type: cell-based, Schistocerca gregaria; conditions: CRE-controlled luciferase, three independent experiments, in triplicate
Excerpt: as §1, §2, §3, §4, §5, §6, §7, §8, §9

[4] = test system: heartbeat and skeletal muscles; set-up: method as in PMID 9151755, PMID 18835439, PMID 16968777; conditions: released into hemolymph during ecdysis; ref [14],[15],[33]; cited from earlier work
[5] = test system: prothoracic gland (PG) explants; test: ecdysteroid secretion by prothoracic gland explants; set-up: species or system Schistocerca gregaria; conditions: 1 µM CCAP, 24 h, 50 µL Grace's insect medium, 30 °C, PG from N5IW nymphs, n = 16 vs n = 15, p < 0.001
Method: Figure 6 Ecdysteroid secretion by prothoracic gland (PG) explants incubated for 24 h in a volume of 50 µL Grace’s insect medium (GI) with or without 1 µM CCAP. PGs were micro-dissected from fifth instar (N5) nymphs at N5IW (inter-wing distance of at least 1.8 mm; GI, n = 15; GI + 1 µM CCAP, n = 16) Each data point represents 20E-equivalents secreted by PG from a single nymph. Mean ± S.E.M. is also indicated per group. Significant difference (p < 0.001) is indicated by asterisks (***) and was calculated by an unpaired t-test with Welch’s correction. Used abbreviations: CCAP = crustacean cardioactive peptide and GI = Grace’s Insect Medium.
To correlate the locust’s morphology to the nymphal ecdysteroid titer that regulates molting, hemolymph was collected as well at the described sampling moments. 20 µL hemolymph from each N5 animal was collected into 280 µL cold ethanol. Each sample was further processed as previously described. The ecdysteroid titers were subsequently quantified using the 20-Hydroxyecdysone ELISA kit (Bertin Technologies, Montigny-le-Bretonneux, France), according to the manufacturer’s protocol.
PGs of N5IW nymphs were micro-dissected in S. gregaria saline solution and incubated in 50 µL Grace’s Insect medium (GI) (Invitrogen, Waltham, MA, USA) containing 1 µM CCAP or in GI without peptide. […]

[6] = test system: Schgr-CCAPpre depleted nymphs; test: rescue of Schgr-CCAPpre depleted nymphs by CCAP injection; type: in vivo, Schistocerca gregaria; conditions: daily 0.92 pg CCAP in 4 µL saline throughout N5; 18/30; vs saline; p < 0.05, Fisher's exact test
Method: Figure 4 Phenotypic effect of Schgr-CCAPpre or Schgr-CCAPR-1, -2 and/or -3 depletion on ecdysis. (A) Percentage of nymphs displaying ecdysis arrest at nymphal-adult (N5-Ad) molt (n = 25, per construct). Nymphs were injected at N4D0, N4D4, N5D1, N5D4 and N5D7 with 400 ng of dsGFP (control), dsCCAPpre, dsCCAPR1/2/3a, dsCCAPR1/2/3b, dsCCAPR-1, dsCCAPR-2 or dsCCAPR-3. (B) Percentage of nymphs displaying ecdysis arrest at nymphal-nymphal (N4–N5) and N5-Ad molts (n = 25, per construct). Nymphs were injected in late N3, N4D1 and N4D4 with 400 ng of dsGFP (control), dsCCAPpre or dsCCAPR1/2/3a. (C) The timing of ecdysis initiation in dsGFP (control), dsCCAPpre (Schgr-CCAPpre knockdown) and dsCCAPR1/2/3a (Schgr-CCAPRs knockdown) injected nymphs, as observed starting from freshly molted fifth instar nymphs. A log-rank (Mantel-Cox) test was used to check for significant differences in ecdysis initiation between populations. (D) Rescue of Schgr-CCAPpre depleted nymphs (n = 30) by additional daily injections of 0.92 pg CCAP in 4 µL S. gregaria saline in N5. In the control groups, nymphs received dsGFP injections or dsCCAPpre injections (n = 31), with additional daily injections of S. gregaria saline in N5. Significant differences (p < 0.05) are indicated by an asterisk (*) and calculated by the Fisher’s exact test. (E) Ecdysis deficient phenotype (top photos). […]

Schgr-CCAPR-1 [7] = test: aequorin bioluminescence assay, CHO-WTA11 cells; type: cell-based, Schistocerca gregaria
Excerpt: as §1
(§10) Figure 2 Aequorin-based bioluminescent responses in cell-based receptor activity assays. (A) Dose-response curves induced by CCAP in CHO-WTA11-Schgr-CCAPR-1, -2 or -3 cells. The EC50 values are indicated. (B) Results for aequorin-based bioluminescent response induced in CHO-WTA11-Schgr-CCAPR-1, -2 and -3 cells upon addition of 1 µM of peptide. These cell-based receptor activity data were obtained from three independent experiments. The cell-based assays were executed in three independent transfections. Error bars in dose-response curves represent the S.E.M and the 100% level refers to the maximal response level. Agonist selectivity was normalized to bioluminescent response acquired by exposure to CCAP. The zero-response level corresponds to treatment with BSA medium only. Abbreviations: Schgr = Schistocerca gregaria, CCAP = crustacean cardioactive peptide, CCAPR = CCAP receptor, CCHa = CCHamide, ASTC = allostatin C, ASTCCC = allostatin CCC, Crz = corazonin, AKH I(I) = adipokinetic hormone I(I), INT = inotocin.
(§11) Aequorin and CRE(6x)-luc reporter assays, as well as maintenance of the cell cultures and cell transfections, were carried out as previously described. […] Minimum bioluminescence values correlate with the signal obtained in the blank condition (without exposure to S. gregaria peptides). Calculations were performed using the output file from the Microwin software (Berthold Technologies, Bad Wildbad, Germany) in Excel (Microsoft). Half-maximal effective concentrations (EC50) were determined with the PRISM software (Graphpad version 6.03) using non-linear regression, log(agonist) vs. normalized response, applied to a sigmoidal dose-response model.

Schgr-CCAPR-3 [8] = test: aequorin bioluminescence assay, CHO-WTA11 cells; type: cell-based, Schistocerca gregaria
Excerpt: as §1, §10, §11

Schgr-CCAPR-2 [9] = test: aequorin bioluminescence assay, CHO-WTA11 cells; type: cell-based, Schistocerca gregaria
Excerpt: as §1, §10, §11

20E levels = conditions: daily injection, adult American cockroach; ref [35]; cited from earlier work
Method: High relative transcript levels of the Schgr-CCAPRs were determined in the PG at N5WD. […] From these observations we conclude that CCAP acts directly on the prothoracic gland as a prothoracicostatic factor. In contrast to the ecdysiostatic activity of CCAP in S. gregaria nymphs, dai ...

Schgr-CCAPR-1 [10] = test: aequorin bioluminescence assay, CHO-PAM28 cells; type: cell-based, Schistocerca gregaria; conditions: CHO-PAM28 cells lacking Gα16, aequorin; three independent experiments, in triplicate
Excerpt: as §1, §2, §3, §4, §5, §6, §7, §8, §9

Schgr-CCAPR-3 [11] = test: aequorin bioluminescence assay, CHO-PAM28 cells; type: cell-based, Schistocerca gregaria; conditions: CHO-PAM28 cells lacking Gα16, aequorin; three independent experiments, in triplicate
Excerpt: as §1, §2, §3, §4, §5, §6, §7, §8, §9

Schgr-CCAPR-2 [12] = test: aequorin bioluminescence assay, CHO-PAM28 cells; type: cell-based, Schistocerca gregaria; conditions: CHO-PAM28 cells lacking Gα16, aequorin; three independent experiments, in triplicate
Excerpt: as §1, §2, §3, §4, §5, §6, §7, §8, §9

locust oviducts = conditions: Ca^2+-dependent, ref [32]; cited from earlier work
Excerpt: The three Schgr-CCAPRs show high sequence similarity to deorphanized CCAP receptors of D. melanogaster, T. castaneum and R. prolixus. Although only one CCAP receptor has been identified in many insect species, there are other species, such as S. gregaria, which have multiple isoforms. […] This is a commonly occurring feature during evolution of GPCR genes in both vertebrates and invertebrates. To supp ...

[13] = 1 µM peptide, normalized to CCAP response
[14] = aequorin and promiscuous Gα16, three independent experiments

## crustacean cardioactive peptide [CCAP]
Schgr-CCAPR-1 [1]
  EC50: 0.01 nM
Schgr-CCAPR-3 [2]
  EC50: 0.05 nM
Schgr-CCAPR-2 [3]
  EC50: 1.2 nM
[4]
  heartbeat and contraction of skeletal muscles: stimulate heartbeat and contraction of skeletal muscles
[5]
  ecdysteroid secretion (prothoracicostatic activity): significant prothoracicostatic activity
[5]; listed as Schgr-CCAP
  ecdysteroid secretion (prothoracicostatic activity): suppressed ecdysteroid secretion
[6]
  rescue effect of ecdysis deficiency phenotype: 60%
Schgr-CCAPR-1 [7]; [13]
  agonist selectivity, receptor activation: markedly activated
Schgr-CCAPR-1 [7]; [14]
  EC50: 3.65 nM
Schgr-CCAPR-3 [8]; [13]
  agonist selectivity, receptor activation: markedly activated
Schgr-CCAPR-3 [8]; [14]
  EC50: 0.59 nM
Schgr-CCAPR-2 [9]; [13]
  agonist selectivity, receptor activation: markedly activated
Schgr-CCAPR-2 [9]; [14]
  EC50: 0.32 nM
20E levels
  20E levels: elevated 20E levels
Schgr-CCAPR-1 [10]
  EC50: 0.7 nM
Schgr-CCAPR-3 [11]
  EC50: 0.5 nM
Schgr-CCAPR-2 [12]
  EC50: 0.2 nM
Locust oviducts
  oviduct contractions: induces Ca^2+-dependent contractions

From article PMC8704491, “Prothoracicostatic Activity of the Ecdysis-Regulating Neuropeptide Crustacean Cardioactive Peptide (CCAP) in the Desert Locust” (International Journal of Molecular Sciences, 2021)
